Measurements from ChEMBL document CHEMBL4419120, “Bitter taste receptors” (2015).
Active and inactive are the calls of the source.

What was measured:
[1] = molecular target: T1, Taste receptor type 2 member 38 (Homo sapiens) (UniProt P59533); experiment: Activity at human TAS2R38 expressed in HEK-293T-Galpha16-gustducin44 cells assessed as threshold concentration of compound at which point receptor detects compounds by measuring calcium response by FLIPR assay; format: functional, cell-based
T1 sequence (whole entry): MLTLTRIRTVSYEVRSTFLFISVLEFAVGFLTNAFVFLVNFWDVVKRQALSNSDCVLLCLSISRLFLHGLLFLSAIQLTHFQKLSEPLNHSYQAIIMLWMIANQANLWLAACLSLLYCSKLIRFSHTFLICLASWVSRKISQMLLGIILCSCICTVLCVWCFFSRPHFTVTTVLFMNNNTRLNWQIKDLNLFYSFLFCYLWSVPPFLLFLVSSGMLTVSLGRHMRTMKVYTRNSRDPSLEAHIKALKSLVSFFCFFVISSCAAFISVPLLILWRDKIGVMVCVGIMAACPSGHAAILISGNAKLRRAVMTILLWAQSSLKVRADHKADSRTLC

[2] = molecular target: T2, Taste receptor type 2 member 38 (Homo sapiens, UniProt P59533); experiment: Activity at human TAS2R38 expressed in HEK-293T-Galpha16-gustducin44 cells assessed as effect on calcium response by FLIPR assay; format: functional, cell-based
T2 sequence (P59533 whole entry): T1 sequence (whole entry)

Homo sapiens [3] = experiment: In-vivo activity at TAS2R16 in trained human taste panelists assessed as detection of bitterness intensity of compound in sensory panel room at 22 to 25 degC by triangle test with tap water as solvent; format: functional, organism-based
[4] = molecular target: T3, Taste receptor type 2 member 16 (Homo sapiens) (UniProt Q9NYV7); experiment: Activity at human TAS2R16 expressed in HEK-293T-Galpha16-gustducin44 cells assessed as threshold concentration of compound at which point receptor detects compounds by measuring calcium response by FLIPR assay; format: functional, cell-based
T3 sequence (whole entry): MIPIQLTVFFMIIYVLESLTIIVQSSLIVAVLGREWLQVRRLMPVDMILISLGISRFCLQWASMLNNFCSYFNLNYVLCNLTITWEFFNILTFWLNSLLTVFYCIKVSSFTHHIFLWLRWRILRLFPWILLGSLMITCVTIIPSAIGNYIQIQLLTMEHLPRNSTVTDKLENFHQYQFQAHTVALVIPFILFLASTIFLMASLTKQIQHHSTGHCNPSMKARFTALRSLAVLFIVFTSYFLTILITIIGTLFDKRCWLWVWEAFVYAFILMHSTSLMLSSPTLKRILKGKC

Homo sapiens [5] = experiment: In-vivo activity at TAS2R16 in trained human taste panelists assessed as threshold concentration of compound at which point panelists detects bitterness intensity of compound in sensory panel room at 22 to 25 degC by triangle test with tap water as solvent; format: functional
[6] = molecular target: T3, Taste receptor type 2 member 16 (Homo sapiens); experiment: Activity at human TAS2R16 expressed in HEK293/15 cells assessed as threshold concentration of compound at which point receptor detects compounds by measuring calcium response by FLIPR assay; format: functional, cell-based
[7] = molecular target: T4, Taste receptor type 2 member 16 (Homo sapiens, UniProt Q9NYV7); experiment: Activity at human TAS2R16 expressed in HEK-293T-Galpha16-gustducin44 cells assessed as effect on calcium response by FLIPR assay; format: functional, cell-based
T4 sequence (Q9NYV7 whole entry): T3 sequence (whole entry)

[8] = molecular target: T4, Taste receptor type 2 member 16; experiment: Activity at human TAS2R16 expressed in HEK293/15 cells assessed as effect on calcium response by FLIPR assay; format: functional, cell-based
[9] = molecular target: T3, Taste receptor type 2 member 16 (Homo sapiens); experiment: Activity at human TAS2R16 expressed in HEK293/15 cells assessed as effect on calcium response up to 100 mM by FLIPR assay; format: functional, cell-based
[10] = molecular target: T3, Taste receptor type 2 member 16 (Homo sapiens); experiment: Activity at human TAS2R16 expressed in HEK293/15 cells assessed as threshold concentration of compound at which point receptor detects compounds by measuring calcium response up to 100 mM by FLIPR assay; format: functional, cell-based
[11] = molecular target: T5, Taste receptor type 2 member 14 (Homo sapiens) (UniProt Q9NYV8); experiment: Activity at human TAS2R14 expressed in HEK-293T-Galpha16-gustducin44 cells assessed as concentration of compound which reacts with receptor by measuring calcium response by FLIPR assay; format: functional, cell-based
T5 sequence (whole entry): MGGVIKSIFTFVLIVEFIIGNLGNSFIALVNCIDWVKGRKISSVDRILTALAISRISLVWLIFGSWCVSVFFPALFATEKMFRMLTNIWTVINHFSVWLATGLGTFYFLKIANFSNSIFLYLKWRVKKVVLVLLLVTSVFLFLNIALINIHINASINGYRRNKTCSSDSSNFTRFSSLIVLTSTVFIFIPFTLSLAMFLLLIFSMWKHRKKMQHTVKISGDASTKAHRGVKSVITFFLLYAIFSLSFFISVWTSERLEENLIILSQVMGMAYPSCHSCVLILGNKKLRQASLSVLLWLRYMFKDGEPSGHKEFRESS

[12] = molecular target: T6, Taste receptor type 2 member 10 (Homo sapiens) (UniProt Q9NYW0); experiment: Activity at human TAS2R10 expressed in HEK293/15 cells assessed as compound concentration showing threshold of activation on calcium response by FLIPR assay; format: functional, cell-based
T6 sequence (whole entry): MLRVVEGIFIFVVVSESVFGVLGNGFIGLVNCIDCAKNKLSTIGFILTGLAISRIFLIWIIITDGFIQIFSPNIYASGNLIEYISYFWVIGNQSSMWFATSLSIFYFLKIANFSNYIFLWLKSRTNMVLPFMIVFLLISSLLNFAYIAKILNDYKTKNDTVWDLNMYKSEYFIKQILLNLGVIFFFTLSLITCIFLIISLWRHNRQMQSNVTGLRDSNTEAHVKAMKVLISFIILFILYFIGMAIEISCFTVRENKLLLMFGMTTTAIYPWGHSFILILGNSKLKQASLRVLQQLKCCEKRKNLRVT

[13] = molecular target: T7, Taste receptor type 2 member 10 (Homo sapiens, UniProt Q9NYW0); experiment: Activity at human TAS2R10 expressed in HEK-293T-Galpha16-gustducin44 cells assessed as effect on calcium response by FLIPR assay; format: functional, cell-based
T7 sequence (Q9NYW0 whole entry): T6 sequence (whole entry)

[14] = molecular target: T6, Taste receptor type 2 member 10 (Homo sapiens); experiment: Activity at human TAS2R10 expressed in HEK-293T-Galpha16-gustducin44 cells assessed as threshold concentration of compound at which point receptor detects compounds by measuring calcium response by FLIPR assay; format: functional, cell-based
[15] = molecular target: T1, Taste receptor type 2 member 38 (Homo sapiens); experiment: Activity at human TAS2R38 expressed in HEK-293T-Galpha16-gustducin44 cells assessed as concentration of compound which reacts with receptor by measuring calcium response by FLIPR assay; format: functional, cell-based

In the case of CC(=O)NC(N)=S, the Activity [1] is reported as 2 µM and the EC50 [2] is reported as 15 µM.
OC[C@H]1O[C@@H](Oc2ccc(O)cc2)[C@H](O)[C@@H](O)[C@@H]1O [ARBUTIN] was tested, and the EC50 (Homo sapiens [3]) was 5400 µM, the Activity [4] was 0.5 mM and the Activity (Homo sapiens [5]) was 0.9 mM. It also gave an Activity [6] of 0.5 mM, an EC50 [7] of 5800 µM and an EC50 [8] of 5800 µM.
In the case of OC[C@H]1O[C@@H](Oc2ccccc2)[C@H](O)[C@@H](O)[C@H]1O, the Activity (Homo sapiens [5]) is reported as 40 mM, the Activity [9] is reported as “inactive” and the Activity [10] is reported as “inactive”.
For NC(=S)Nc1ccccc1 [PHENYLTHIOUREA], the Activity [1] was 0.3 µM and the EC50 [2] was 2 µM.
In the case of S=C1NCCN1, the Activity [1] is reported as 10 µM.
For CO[C@@H]1O[C@H](CO)[C@@H](O)[C@H](O)[C@H]1O, the Activity [4] was 15 mM, the Activity (Homo sapiens [5]) was 32 mM and the Activity [6] was 15 mM. It also gave an EC50 [7] of 32000 µM.
OC[C@H]1O[C@@H](Oc2ccccc2)[C@H](O)[C@@H](O)[C@@H]1O showed an EC50 (Homo sapiens [3]) of 700 µM, an Activity [4] of 0.07 mM and an Activity (Homo sapiens [5]) of 0.1 mM. For the same molecule, the Activity [6] was 0.07 mM, the EC50 [7] was 1100 µM and the EC50 [8] was 1100 µM.
Work on O=c1ccc2cc(O[C@@H]3O[C@H](CO)[C@@H](O)[C@H](O)[C@H]3O)c(O)cc2o1 [ESCULIN] yielded an Activity [4] of 4 mM, an Activity (Homo sapiens [5]) of 4 mM and an Activity [6] of 4 mM.
With O=[N+]([O-])c1ccccc1O[C@@H]1O[C@H](CO)[C@@H](O)[C@H](O)[C@H]1O the Activity [4] was 0.3 to 1 mM and the Activity [6] was 1.5 mM.
With O=c1cc[nH]c(=S)[nH]1 [THIOURACIL] the Activity [1] was 300 µM and the EC50 [2] was 2000 µM.
Molecule CC(=N)S has an Activity [1] of 100 µM.
Work on CNC(N)=S yielded an Activity [1] of 100 µM and an EC50 [2] of 600 to 800 µM.
In the case of CCCc1cc(=O)[nH]c(=S)[nH]1 [PROPYLTHIOURACIL], the Activity [1] is reported as 0.3 µM and the EC50 [2] is reported as 2 µM.
N[C@@H](Cc1ccc(O)cc1)C(=O)O showed an Activity [11] of 1 mM.
In the case of COc1cc2c(cc1OC)[C@@]13CCN4CC5=CCO[C@H]6CC(=O)N2[C@H]1[C@H]6[C@H]5C[C@H]43 [BRUCINE], the Activity [12] is reported as “Active”, the EC50 [13] is reported as 60 µM and the Activity [14] is reported as 0.01 mM.
In the case of CC[N+](CC)(CC(=O)Nc1c(C)cccc1C)Cc1ccccc1 [DENATONIUM BENZOATE], the EC50 [13] is reported as 70 µM and the Activity [14] is reported as 0.003 mM.
Molecule O=[N+]([O-])c1ccc(O[C@@H]2O[C@H](CO)[C@@H](O)[C@H](O)[C@H]2O)cc1 has an Activity [4] of 1 to 3 mM.
CN(C)C(=S)N(C)C showed an Activity [1] of 10 to 30 µM and an EC50 [2] of 100 µM.
With OC[C@H]1O[C@H](Oc2ccccc2)[C@H](O)[C@@H](O)[C@@H]1O the EC50 (Homo sapiens [3]) was 50000 µM, the Activity (Homo sapiens [5]) was 9 mM and the Activity [9] was “inactive”. For the same molecule, the Activity [10] was “inactive”.
O=C1CC(=O)NC(=S)N1 was tested, and the Activity [15] was 10 mM.
With CC/N=C(/N)S the Activity [1] was 30 µM.
For N#C[C@H](O[C@@H]1O[C@H](CO[C@@H]2O[C@H](CO)[C@@H](O)[C@H](O)[C@H]2O)[C@@H](O)[C@H](O)[C@H]1O)c1ccccc1 [AMYGDALIN], the Activity [4] was 2.3 mM, the Activity [6] was 2.3 mM and the EC50 [7] was 20000 µM. For the same molecule, the EC50 [8] was 20000 µM.
O=C1C[C@@H]2OCC=C3CN4CC[C@]56c7ccccc7N1[C@H]5[C@H]2[C@H]3C[C@H]46 [STRYCHNINE] showed an Activity [12] of 0.1 µM, an EC50 [13] of 40 µM and an Activity [14] of 0.003 mM.
CC(=S)Nc1ccccc1 was tested, and the Activity [1] was 3 µM and the EC50 [2] was 18 µM.
O=[N+]([O-])c1ccc(S[C@@H]2O[C@H](CO)[C@@H](O)[C@H](O)[C@H]2O)cc1 showed an Activity [4] of 1 to 5 mM.
For CCNC(N)=S, the EC50 [2] was 260 µM.
CN(C)C=S gave an Activity [1] of 10 µM and an EC50 [2] of 55 µM.
OC[C@H]1O[C@@H](Oc2ccc3ccccc3c2)[C@H](O)[C@@H](O)[C@@H]1O gave an EC50 (Homo sapiens [3]) of 1400 µM, an Activity [4] of 0.4 mM and an Activity (Homo sapiens [5]) of 0.2 mM. It also gave an Activity [6] of 0.4 mM, an EC50 [7] of 1000 µM and an EC50 [8] of 1000 µM.
For OCc1ccccc1O[C@@H]1O[C@H](CO)[C@@H](O)[C@H](O)[C@H]1O [SALICIN], the EC50 (Homo sapiens [3]) was 1100 µM, the Activity [4] was 0.07 mM and the Activity (Homo sapiens [5]) was 0.2 mM. The Activity [6] was 0.07 mM, the EC50 [7] was 1400 µM and the EC50 [8] was 1400 µM.
O=[N+]([O-])c1ccc(O[C@@H]2O[C@H](CO)[C@@H](O)[C@H](O)[C@@H]2O)cc1 gave an Activity [4] of 1 to 3 mM.
O=Cc1ccccc1O[C@@H]1O[C@H](CO)[C@@H](O)[C@H](O)[C@H]1O [HELICIN] gave an EC50 (Homo sapiens [3]) of 2200 µM, an Activity [4] of 0.3 mM and an Activity (Homo sapiens [5]) of 0.4 mM. For the same molecule, the Activity [6] was 0.3 mM, the EC50 [7] was 2300 µM and the EC50 [8] was 2300 µM.
With O=c1cc(-c2ccccc2)[nH]c(=S)[nH]1 the Activity [1] was 0.15 µM and the EC50 [2] was 0.5 µM.
